According to PubChem BioAssay (NCI):
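The compound was tested at five concentrations on cells cultured in 96-well plates, with a 48-hour exposure period. The concentration for 50% growth inhibition is given as GI50. Definition used: TGI = concentration required for complete inhibition of growth.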

Experiments:
Test in all cases: inhibition of tumour cell growth, NCI panel, 48 h
NCI-H23 lung = test system: NCI-H23 lung
SNB-75 CNS = test system: SNB-75 CNS
NCI-H226 lung = test system: NCI-H226 lung
HCC-2998 colon = test system: HCC-2998 colon
SNB-19 CNS = test system: SNB-19 CNS
SK-OV-3 ovarian = test system: SK-OV-3 ovarian
SK-MEL-28 melanoma = test system: SK-MEL-28 melanoma
MALME-3M melanoma = test system: MALME-3M melanoma
SF-539 CNS = test system: SF-539 CNS
OVCAR-5 ovarian = test system: OVCAR-5 ovarian

Compound	TGI (NCI-H23 lung)	TGI (SNB-75 CNS)	TGI (NCI-H226 lung)	TGI (HCC-2998 colon)	TGI (SNB-19 CNS)	TGI (SK-OV-3 ovarian)	TGI (SK-MEL-28 melanoma)	TGI (MALME-3M melanoma)	TGI (SF-539 CNS)	TGI (OVCAR-5 ovarian)	GI50 (NCI-H23 lung)	GI50 (SNB-75 CNS)	GI50 (NCI-H226 lung)	GI50 (HCC-2998 colon)	GI50 (SNB-19 CNS)	GI50 (SK-OV-3 ovarian)	GI50 (OVCAR-5 ovarian)	GI50 (SK-MEL-28 melanoma)	GI50 (SF-539 CNS)	GI50 (MALME-3M melanoma)
Cc1cccc(C)c1N1C(=O)C(=O)C(c2nc3ccccc3s2)/C(=N/NC(=O)NN)C1=O (stereo unspecified)	> 100 µM	> 100 µM	> 100 µM	> 100 µM	> 100 µM	> 100 µM	> 100 µM	> 100 µM	> 100 µM	–	–	–	–	–	–	–	–	–	–	–
O=C1[C@H]2ON(c3ccccc3)C(c3ccco3)[C@H]2C(=O)N1c1ccc(Cc2ccc(N3C(=O)[C@@H]4ON(c5ccccc5)C(c5ccco5)[C@@H]4C3=O)cc2)cc1 (stereo partly specified)	> 100 µM	> 100 µM	> 100 µM	> 100 µM	–	> 100 µM	> 100 µM	> 100 µM	> 100 µM	> 100 µM	–	–	–	–	–	–	–	–	–	–
CSc1ccc(N(C)c2nc(C)nc3c2CCC3)cc1	33 µM	42.1 µM	> 100 µM	10.8 µM	> 100 µM	16.1 µM	36.6 µM	–	< 0.01 µM	> 100 µM	< 0.01 µM	< 0.01 µM	< 0.01 µM	< 0.01 µM	< 0.01 µM	< 0.01 µM	1.23 µM	1.38 µM	< 0.01 µM	–
CCOC(=O)N1CCN(CCCCCOc2ccccc2C2CCCCC2)CC1	5.93 µM	23 µM	18.4 µM	–	22.6 µM	19.1 µM	16.3 µM	19.2 µM	19.1 µM	–	3.12 µM	10.7 µM	3.96 µM	–	10.7 µM	6.08 µM	–	2.87 µM	6.39 µM	4.91 µM
O=C1C2=C(CCC2)Nc2cccc3ncn1c23	> 100 µM	–	–	> 100 µM	> 100 µM	> 100 µM	> 100 µM	> 100 µM	> 100 µM	> 100 µM	–	–	–	–	–	–	–	–	–	–
N#C/C(=C1\SC(N=Nc2ccc(Cl)cc2)C(=O)N1c1ccccc1)c1nc2ccccc2[nH]1 (stereo unspecified)	65.8 µM	65.5 µM	77.2 µM	–	89.6 µM	35.6 µM	> 100 µM	99.1 µM	> 100 µM	> 100 µM	–	–	–	–	–	–	–	–	–	–
Cc1ccc(NC(=O)/C(Cc2nc3ccc([N+](=O)[O-])cc3[nH]c2=O)=N\NC(=O)C[n+]2ccccc2)c(C)c1	> 100 µM	> 100 µM	> 100 µM	> 100 µM	> 100 µM	56.5 µM	> 100 µM	–	> 100 µM	> 100 µM	–	–	–	–	–	–	–	–	–	–
CCCCCCCCCCCCCC[n+]1cccc(C(N)=O)c1	13.6 µM	2.57 µM	5.11 µM	–	2.4 µM	8.13 µM	5.52 µM	4.21 µM	–	6.25 µM	2.28 µM	1.06 µM	1.63 µM	2.2 µM	1.01 µM	1.9 µM	1.62 µM	2.01 µM	–	1.75 µM
CCOC(=O)c1c(SCCN2CCOCC2)n(-c2ccccc2)c(=S)n(-c2ccccc2)c1=O	92.3 µM	> 100 µM	> 100 µM	> 100 µM	> 100 µM	–	53.8 µM	> 100 µM	–	> 100 µM	–	–	–	–	–	–	–	–	–	–
COC(=O)C1C(=O)N(CCc2c[nH]c3ccccc23)C[C@@H]2CCC(=O)C[C@H]12 (stereo partly specified)	> 100 µM	> 100 µM	–	> 100 µM	> 100 µM	> 100 µM	> 100 µM	> 100 µM	> 100 µM	–	–	–	–	–	–	–	–	–	–	–
O=c1[nH]c2cc([N+](=O)[O-])ccc2nc1/C(=N\Nc1ccccc1)C(O)c1ccc2c(c1)OCO2 (stereo unspecified)	> 100 µM	> 100 µM	> 100 µM	> 100 µM	> 100 µM	> 100 µM	> 100 µM	> 100 µM	> 100 µM	–	–	–	–	–	–	–	–	–	–	–
Cc1cc2c(cc1Cl)S/C(=C/C(=O)O)C(Nc1cccc3nsnc13)=NS2(=O)=O	> 61.7 µM	> 100 µM	> 68 µM	–	> 66.8 µM	> 62.5 µM	19.4 µM	> 65.8 µM	–	> 67.4 µM	35.2 µM	> 100 µM	32.1 µM	–	> 52 µM	> 49.5 µM	34.6 µM	8.06 µM	–	> 53.4 µM
O=C(NCCN1CCNCC1)c1ccc(Nc2nc3ccccc3c3occc23)cc1	27.6 µM	25.9 µM	–	3.9 µM	> 100 µM	47.5 µM	8.45 µM	–	6.36 µM	29.5 µM	12.6 µM	7.06 µM	–	1.79 µM	15.5 µM	19.3 µM	15 µM	2.57 µM	2.65 µM	–
C=CCNC(=O)N(CCC)CCCC(NC(C)=O)C(=O)NCc1ccccc1 (stereo unspecified)	> 100 µM	> 100 µM	> 100 µM	–	> 100 µM	> 100 µM	> 100 µM	> 100 µM	> 100 µM	> 100 µM	–	–	–	–	–	–	–	–	–	–
c1ccc2[nH]c(CNc3ccc(C4C[Se]N=N4)cc3)nc2c1 (stereo unspecified)	> 100 µM	> 100 µM	–	> 100 µM	> 100 µM	> 100 µM	> 100 µM	> 100 µM	> 100 µM	> 100 µM	–	–	–	–	–	–	–	–	–	–
c1ccc(-c2nc(N3CCCNCC3)c3nc(-c4ccccc4)oc3n2)cc1	3.23 µM	–	–	3.02 µM	3.34 µM	3.19 µM	3.15 µM	3.33 µM	3.03 µM	3.18 µM	1.71 µM	–	–	1.53 µM	1.71 µM	1.74 µM	1.7 µM	1.71 µM	1.64 µM	1.77 µM
COc1cc(CNc2nc3ccc(C(F)(F)F)cc3nc2-c2ccccc2)cc(OC)c1OC	> 100 µM	61.7 µM	–	> 100 µM	> 100 µM	> 100 µM	> 100 µM	> 100 µM	> 100 µM	> 100 µM	–	–	–	–	–	–	–	–	–	–
COc1ccccc1NC(=O)/C(=C/c1ccccc1)C(C)=O	65.7 µM	–	> 100 µM	> 100 µM	> 100 µM	> 100 µM	> 100 µM	> 100 µM	62 µM	> 100 µM	–	–	–	–	–	–	–	–	–	–
N.N.N.N.N.O=S(=O)([O-])S(=O)(=O)[O-].[Co+3]	> 100 µM	> 100 µM	–	–	> 100 µM	> 100 µM	> 100 µM	> 100 µM	> 100 µM	> 100 µM	> 100 µM	62.8 µM	–	–	> 100 µM	> 100 µM	> 100 µM	> 100 µM	> 100 µM	> 100 µM
O=C1c2cccc3cccc(c23)C(=O)N1O	> 100 µM	80.2 µM	–	> 100 µM	> 100 µM	> 100 µM	> 100 µM	> 100 µM	> 100 µM	> 100 µM	–	–	–	–	–	–	–	–	–	–
O=C1/C(=C/c2cccc([N+](=O)[O-])c2)Sc2scc(-c3ccc([N+](=O)[O-])cc3)[n+]21	35.5 µM	32.1 µM	> 100 µM	29.9 µM	46.1 µM	90.5 µM	62.3 µM	–	> 100 µM	51.2 µM	–	–	–	–	–	–	–	–	–	–
O=C1c2ccccc2-c2c1c1c(NCCCO)nc3ccccc3c1n2Cc1ccccc1	34.9 µM	39.8 µM	> 100 µM	–	73.1 µM	40.4 µM	38.1 µM	38.2 µM	36.7 µM	39.9 µM	14.4 µM	20.7 µM	41.3 µM	–	27.8 µM	21.9 µM	18 µM	20.6 µM	18.5 µM	19 µM
CCOC(=O)C1(Cc2ccc3ccccc3c2)CCCCC(=O)N1 (stereo unspecified)	> 100 µM	9.22 µM	–	66.6 µM	> 100 µM	> 100 µM	> 100 µM	86.5 µM	–	–	–	–	–	–	–	–	–	–	–	–
CC1=NN(C(=O)c2ccncc2)C(=O)C1N=Nc1ccc(F)cc1 (stereo unspecified)	> 100 µM	66.8 µM	> 100 µM	–	> 100 µM	> 100 µM	> 100 µM	> 100 µM	> 100 µM	> 100 µM	–	–	–	–	–	–	–	–	–	–
C[C@]12C/C(=C/O)C(=O)C(O)=C1CC[C@@H]1C2CC[C@@]2(C)C1CC[C@@H]2O (stereo partly specified)	40.3 µM	34.9 µM	36.8 µM	–	36.1 µM	65.5 µM	48.2 µM	46.2 µM	34.2 µM	46.1 µM	–	–	–	–	–	–	–	–	–	–
CCCCCCC(C)CCCCCCCCCCC(=O)O (stereo unspecified)	> 100 µM	> 100 µM	> 100 µM	–	> 100 µM	> 100 µM	> 100 µM	> 100 µM	> 100 µM	> 100 µM	–	–	–	–	–	–	–	–	–	–
COc1ccc(C2Oc3c(c(O)cc4c3[C@H](c3ccc(O)cc3O)[C@H](O)C(c3ccc(O)c(O)c3)O4)C[C@@H]2O)cc1O (stereo partly specified)	> 100 µM	> 100 µM	> 100 µM	> 100 µM	> 100 µM	> 100 µM	–	> 100 µM	> 100 µM	> 100 µM	–	–	–	–	–	–	–	–	–	–
COc1c(O)c(OC)c2oc(-c3ccc(O)cc3)c(OC)c(=O)c2c1O	> 100 µM	–	> 100 µM	> 100 µM	> 100 µM	53.7 µM	> 100 µM	> 100 µM	> 100 µM	> 100 µM	–	–	–	–	–	–	–	–	–	–
Cc1cc(C)n(C2=NS(=O)(=O)c3ccccc3N2C)n1	> 100 µM	–	> 100 µM	> 100 µM	> 100 µM	> 100 µM	> 100 µM	–	> 100 µM	> 100 µM	–	–	–	–	–	–	–	–	–	–
